Experimental data reported in paper PMC8261488, “Contraceptive progestins with androgenic properties stimulate breast epithelial cell proliferation” (EMBO Molecular Medicine, 2021).

Columns and labels:
[1] = test system: HBECs; experiment: MKI67/Ki67 expression in xenografted HBECs; format: in vivo, human; conditions: 21 days pellets; for cell proliferation (KI67 and hECAD double+ cells), overall analysis: HBECs from 11 different patients; for cell proliferation (KI67 and hECAD double+ cells): one mammoplasty (M310)
Description: (§1) Next, we sought for a readout of in vivo cell proliferation different from radiance. […] Given that MKI67 expression could replace the luciferase measurements as a readout, we used a modified experimental setup for a second round of experiments. We derived HBECs from viably frozen mammoplasty samples (Appendix Table S3) and engrafted them to different mammary glands of NSG females without viral infection. Four months later, the 24 recipient females, each engrafted with 5 different mammoplasties received pellets containing either vehicle, progesterone, or 1 of 6 progestins for 21 days. At sacrifice, xenografted glands were histologically sectioned and cell proliferation was quantified using co‐IF with anti‐MKI67 and anti‐hECAD antibodies. For one of the mammoplasties, we were able to obtain measurements for all experimental conditions (Fig 5I). […] For the remaining mammoplasties, between 3 and 8 different experimental conditions were successfully quantified (Appendix Table S4). […] CPA (P < 0.0001) decreased proliferation, whereas CMA and DSP had no effect (Fig 5K). As AR signaling increases AR protein levels, we performed co‐IF for AR and hECAD as another means to assess AR signaling activity.
(§2) Tissues were fixed for 2 h at room temperature in 4% paraformaldehyde and paraffin‐embedded. Dewaxed and rehydrated paraffin sections were pretreated in 10 mM Na citrate (pH 6.0) at 95° for 20 min. Blocking was performed with 1% BSA for 60 min. Primary antibodies used were as follows: Ki67 (rabbit α‐Ki67, clone Sp6, Spring Amsbio, dilution 1:200), ER (rabbit α‐ER, clone Sp1, Zytomed RTU), PR (rabbit α‐PR, clone 1E2, Ventana RTU), AR (rabbit α‐AR, clone SP107, Thermo Fisher, diluted 1:200), CK7 (rabbit α‐CK7, clone Sp52, Abcam, diluted 1:500), CK19 (mouse KS19.2 (Z105.6), American Research Products Inc. (diluted 1:50), and mouse α‐ECAD (clone G‐10, sc‐8426, diluted 1:100). For IHC, chromogenic revelation was performed with ChromoMap DAB kit (Roche Diagnostics, Switzerland) and sections were counterstained with Mayer’s hematoxylin. For fluorescence microscopy, nuclei were counterstained with DAPI (Sigma). IHC for ER, PR, and AR was performed on Discovery Ventana ULTRA (44). IHC images were acquired on Leica DM 2000 with Leica DFC450 C camera. IF images were acquired on Zeiss LSM700 confocal microscope. Slides were scanned with Olympus VS120‐L100 slide scanner with 20×/0.75 objective and Pike F505 C Color camera. Images were loaded into QuPath using the BioFormats extension (Bankhead et al, 2017).

[2] = test system: Wnt4; experiment: Wnt4 transcript levels by RT-PCR in mouse mammary organoids stimulated ex vivo; format: cell-based; conditions: for Wnt4 transcript levels over vehicle-treated control: BalbC females, 6 h of stimulation
Experimental: (§3) Next, we stimulated mouse mammary organoids derived from several BalbC females with R5020 or different progestins (Fig 1A). […] No significant change in Rankl and Wnt4 transcript levels was detected during the first 2 h (Appendix Fig S1D). By 6 h of R5020 stimulation, Rankl and Wnt4 transcript levels increased 22.4 and 5.8‐fold over the vehicle‐treated control, respectively.
(§4) Animal experiments were performed in accordance with protocol approved by the Service de la Consommation et des Affaires vétérinaires of Canton de Vaud (VD 1865.3, VD 1865.4). NOD. Cg‐Prkdc^scid Il2rg^tm1Wjl/SzJ mice (Charles River), BalbC, and C57Bl6 breeders were purchased from Jackson Laboratories. Mammary glands were isolated from 18‐ to 35‐week‐old mice, lymph nodes removed, minced with surgical blades, and digested in DMEM/F12, 1% penicillin/streptomycin B with collagenase A 0.25 mg/ml (Roche). […] Fat was removed, and pellet containing organoids washed with phosphate‐buffered saline (PBS), resuspended 5 min in 3 ml red cell blood lysis buffer and washed twice with PBS.
(§5) Human breast microstructures and mouse organoids were homogenized in Trizol (Invitrogen). Aqueous phase containing RNA was chloroform extracted and processed with miRNeasy extraction kit (Qiagen). cDNA was synthesized using random p(dN)6 primers (Roche) and MMLV reverse transcriptase (Invitrogen). SYBR Green PCR Core Reagent System (Qiagen) was used for semi‐quantitative real time (RT‐PCR) using the following primers.

[3] = test system: endogenous hormone levels in mice; experiment: Endogenous steroid hormone plasma levels in treated host mice by LC-MS; format: in vivo, mouse; conditions: xenografted NSG females with pellets
Description: Next, we assessed whether progesterone and progestins differentially affected endogenous hormone levels in mice. Plasma 17‐β‐estradiol levels were not affected by any of the treatments (Fig 4H). […] Plasma testosterone levels were not altered by any treatment with the exception of DSP, which decreased them (Fig 4H). Thus, prolonged exposures to progestins differentially affect endogenous progesterone plasma levels and DSP decreases testosterone plasma levels in host mice.

[4] = test system: AR; experiment: Percentage of AR+ cells in xenografted HBECs by co-IF for AR and hECAD; format: in vivo, human; conditions: 21 days pellets, HBECs from 11 different patients
Description: as §1, §2

[5] = test system: AR; parameters: method as in earlier work; conditions: various assays, ref Fuhrmann et al, 1995, Muhn et al, Bouchard, 2005, Mishell, 2008, Schneider et al, 2009, Africander et al, 2011, Louw‐du Toit et al, 2017; cited from earlier work
[6] = test system: Rankl; experiment: Rankl transcript levels by RT-PCR in mouse mammary organoids stimulated ex vivo; format: cell-based; conditions: for Rankl transcript levels over vehicle-treated control: BalbC females, 6 h of stimulation
Experimental: as §3, §4, §5

[7] = test system: HBECs; experiment: In vivo growth of intraductal HBEC xenografts measured by radiance; conditions: 60 days of treatment, subcutaneous pellets
Description: To compare the effects of progesterone and different progestins on HBECs in vivo, we infected single cell suspensions obtained from fresh reduction mammoplasty specimens with GFP‐luciferase2‐expressing lentiviruses. The infected cell mixture was grafted intraductally to up to 5 glands of as many recipients as possible. The engraftment and growth of the xenografted cells were monitored weekly by in vivo imaging. When radiance reached > 10E07 on average per mammary gland, 60‐day‐release pellets were implanted subcutaneously, usually within 3–10 weeks after cell injection. At sacrifice, blood was collected and plasma levels of the administered compounds as well as endogenous steroid hormones were determined by liquid chromatography‐mass spectrometry (LC‐MS) (Laszlo et al, 2019).
Next, the in vivo growth of HBEC xenografts stimulated with progesterone or different progestins was analyzed. […] In addition, the fold change radiance of treated versus untreated samples at endpoint was calculated (Fig 5A–C).
Mice were anesthetized by intraperitoneal injection with 10 mg/kg xylazine and 90 mg/kg ketamine (Graeub) and injected intraductally with 10 μl cell suspension per gland. Bioluminescence imaging was performed as described (Sflomos et al, 2016). After 3–10 weeks, when bioluminescence from individual glands reached 10^7 total flux (p/s/cm2/sr), animals were assigned to different treatment groups and hormone pellets implanted subcutaneously. Enzalutamide (Selleckchem, Catalog No. S1250) dissolved in 15% DMSO in PEG300 was injected intraperitoneally 3 times/week at 30 mg/kg.
Pellets were prepared by mixing the required amount of part A, MP3745/E81949 and part B, MP3744/E81950 of low consistency silicon elastomer (MED‐4011) and hormone powder to homogeneity. Mix was transferred to a syringe and incubated at 37°C overnight. The silicon‐hormone mass was removed from the syringe and cut to pieces, as described (Duss et al, 2007). The original protocol was adapted for different doses as described below.

[8] = test system: women; conditions: women taking androgenic progestins; ref Rossouw et al, 2002; cited from earlier work
[9] = BalbC-derived organoids, 24 h of stimulation

Row | SMILES | cell proliferation (KI67 and hECAD double+ cells), overall analysis [1] | cell proliferation (KI67 and hECAD double+ cells) [1] | Wnt4 transcript levels over vehicle-treated control [2] | Wnt4 transcript induction [2, 9] | Wnt4 transcript induction ([2]; C57Bl/6 mice, 6 h, 20 nM) | endogenous progesterone plasma levels (estrous cycle-related variation) [3] | percentage of AR+ cells (AR index) [4] | androgenic / anti-androgenic activity [5] | Rankl transcript levels over vehicle-treated control [6] | Rankl transcript induction [6, 9] | Rankl transcript induction ([6]; C57Bl/6 mice, 6 h, 20 nM) | growth (course of radiance) of engrafted HBECs versus control [7] | relative radiance at endpoint over control (FC) [7] | breast cancer risk [8] | plasma testosterone levels [3]
1 | CC(=O)O[C@]1(C(C)=O)CC[C@H]2[C@@H]3C=C(Cl)C4=CC(=O)[C@@H]5C[C@@H]5[C@]4(C)[C@H]3CC[C@@]21C [CPA, cyprotherone acetate] | decreased | decreased | did not alter Wnt4 transcript levels | no effect | 2 fold | did not affect | decreased | anti‐androgenic activity | failed to affect Rankl transcript levels at all | no effect | failed to increase Rankl transcript levels | Neither CMA nor CPA had any effect on the growth | 0.7 fold | – | –
2 | CC(=O)O[C@]1(C(C)=O)CC[C@H]2[C@@H]3C[C@H](C)C4=CC(=O)CC[C@]4(C)[C@H]3CC[C@@]21C [MPA] | – | – | – | – | – | – | – | – | – | – | – | – | – | elevated breast cancer risk | –
3 | CC(=O)O[C@]1(C(C)=O)CC[C@H]2[C@@H]3C=C(Cl)C4=CC(=O)CC[C@]4(C)[C@H]3CC[C@@]21C [CMA, chlormadinone acetate] | no effect | no effect | did not alter Wnt4 transcript levels | no effect | did not alter Wnt4 transcript levels | tendency toward higher average level of progesterone | no effect | anti‐androgenic activity | failed to affect Rankl transcript levels at all | no effect | failed to increase Rankl transcript levels | Neither CMA nor CPA had any effect on the growth | 0.7 fold | – | –
4 | C[C@]12CCC(=O)C=C1[C@@H]1C[C@@H]1[C@H]1[C@@H]3[C@@H]4C[C@@H]4[C@@]4(CCC(=O)O4)[C@@]3(C)CC[C@@H]12 [DSP, drospirenone] | no effect | no effect | did not alter Wnt4 transcript levels | no effect | did not alter Wnt4 transcript levels | suppressed | decreased | anti‐androgenic activity | failed to affect Rankl transcript levels at all | no effect | failed to increase Rankl transcript levels | failed to affect | 1.4 fold | – | decreased
